Laboratory results as given in patent publication US9381200B2, “Nitrogen containing compounds” (WOCKHARDT LIMITED, priority 2011, dated 2016).
Values after ≈ are worked out from the molar mass of the structure shown. Like-named read-outs stand apart in the source and are kept apart here.

Legend:
Type in all cases: cell-based
E. coli 7 MP = assay: Antibacterial activity (MIC), agar dilution per CLSI; conditions: Table 3, E. coli 7 MP expressing ESBL
Method: (§1) The biological activity of representative compounds according to the invention against various bacterial strains was investigated. In a typical study, overnight grown bacterial cultures were diluted appropriately and inoculated on the agar media containing doubling dilutions of the test compounds. Observation for growth or no growth was performed after 16-20 hours of incubation at 35±2° C. in ambient air. The overall procedure was performed as per Clinical and Laboratory Standards Institute (CLSI) recommendations (Clinical and Laboratory Standards Institute (CLSI), Performance Standards for Antimicrobial Susceptibility Testing, 20th Informational Supplement, M 100-S20, Volume 30, No. 1, 2010).
(§2) Table 3 details antibacterial activity of representative compounds according to the invention against various E. coli strains (NCTC 13351, M 50 and 7 MP) expressing ESBL (Extended Spectrum Beta Lactamases).

E. coli NCTC 13351 = assay: as above; conditions: 16-20 hours, 35±2° C.
Method: as §1, §2

E. coli M 50 = assay: as above
Method: as §1
(§3) The activities are expressed as MICs (mcg/ml).

E. Coli B 89 = assay: Antibacterial activity (MIC) against MDR Gram negative strains; conditions: Escherichia coli
Method: as §1, §3

E. Coli H 484 = assay: as above; conditions: Escherichia coli
Method: as §1, §3

E. Coli M 3 = assay: as above; conditions: Escherichia coli
Method: as §1, §3

E. Coli M 44 = assay: as above; conditions: Escherichia coli
Method: as §1, §3

E. Coli W 13351 = assay: as above; conditions: Escherichia coli
Method: as §1, §3

E. Coli W 13352 = assay: as above; conditions: Escherichia coli
Method: as §1, §3

E. Coli W 13353 = assay: as above; conditions: Escherichia coli
Method: as §1, §3

K penumoniae H 521 = assay: as above
Method: as §1, §3

K penumoniae H 523 = assay: as above
Method: as §1, §3

K penumoniae H 525 = assay: as above
Method: as §1, §3

K. penumoniae S 48 = assay: as above
Method: as §1, §3

P. aeruginosa ATCC 27853 = assay: as above; conditions: Pseudomonas aeruginosa, ATCC27853
Method: as §1, §3

P. aeruginosa Ps 21 = assay: as above; conditions: Pseudomonas aeruginosa, PS21
Method: as §1, §3

P. aeruginosa Ps 32 = assay: as above; conditions: Pseudomonas aeruginosa, PS32
Method: as §1, §3

[1] = Escherichia coli, read-out: MIC
[2] = Escherichia coli, NCTC13351, Table 3, E. coli NCTC 13351 expressing ESBL, read-out: MIC
[3] = Escherichia coli, M50, Table 3, E. coli M 50 expressing ESBL, agar dilution, read-out: MIC
[4] = Escherichia coli, M50, Table 4, E. Coli M 50, Class C ESBL, MDR, read-out: MIC
[5] = Table 4, E. Coli B 89, Class C ESBL, MDR, read-out: MIC
[6] = Table 4, E. Coli H 484, Class C ESBL, MDR, read-out: MIC
[7] = Table 5, E. Coli M 3, Class B ESBL, MDR, read-out: MIC
[8] = Table 5, E. Coli M 44, Class B ESBL, MDR, read-out: MIC
[9] = Table 4, E. Coli W 13351, Class A ESBL, MDR, read-out: MIC
[10] = Table 4, E. Coli W 13352, Class A ESBL, MDR, read-out: MIC
[11] = Table 4, E. Coli W 13353, Class A ESBL, MDR, read-out: MIC
[12] = Table 4, K penumoniae H 521, KPC ESBL, MDR, read-out: MIC
[13] = Table 4, K penumoniae H 523, KPC ESBL, MDR, read-out: MIC
[14] = Table 4, K penumoniae H 525, KPC ESBL, MDR, read-out: MIC
[15] = Table 5, K. penumoniae S 48, Class B ESBL, MDR, read-out: MIC
[16] = Table 5, P. aeruginosa ATCC 27853, read-out: MIC
[17] = Table 5, P. aeruginosa Ps 21, read-out: MIC
[18] = Table 5, P. aeruginosa Ps 32, read-out: MIC

MIC (E. coli 7 MP; [1])	MIC (E. coli NCTC 13351; [2])	MIC (E. coli M 50; [3])	MIC (E. coli M 50; [4])	MIC (E. Coli B 89; [5])	MIC (E. Coli H 484; [6])	MIC (E. Coli M 3; [7])	MIC (E. Coli M 44; [8])	MIC (E. Coli W 13351; [9])	MIC (E. Coli W 13352; [10])	MIC (E. Coli W 13353; [11])	MIC (K penumoniae H 521; [12])	MIC (K penumoniae H 523; [13])	MIC (K penumoniae H 525; [14])	MIC (K. penumoniae S 48; [15])	MIC (P. aeruginosa ATCC 27853; [16])	MIC (P. aeruginosa Ps 21; [17])	MIC (P. aeruginosa Ps 32; [18])	SMILES	also measured
2 µg/mL (≈ 5.69 µM)	1 µg/mL (≈ 2.85 µM)	1 µg/mL (≈ 2.85 µM)	1 µg/mL (≈ 2.85 µM)	1 µg/mL (≈ 2.85 µM)	2 µg/mL (≈ 5.69 µM)	4 µg/mL (≈ 11.4 µM)	0.5 µg/mL (≈ 1.42 µM)	1 µg/mL (≈ 2.85 µM)	1 µg/mL (≈ 2.85 µM)	1 µg/mL (≈ 2.85 µM)	1 µg/mL (≈ 2.85 µM)	0.5 µg/mL (≈ 1.42 µM)	1 µg/mL (≈ 2.85 µM)	1 µg/mL (≈ 2.85 µM)	8 µg/mL (≈ 22.8 µM)	16 µg/mL (≈ 45.5 µM)	8 µg/mL (≈ 22.8 µM)	NCCC(=O)NNC(=O)[C@H]1CC[C@@H]2CN1C(=O)N2OS(=O)(=O)O (relative stereo) [Example 8, trans-sulfuric acid mono-[2-(N′-(3-amino-propioyl)-hydrazinocarbonyl)-7-oxo-1,6-diaza-bicyclo[3.2.1]oct-6-yl]ester]	–
0.25 µg/mL (≈ 0.662 µM)	0.025 µg/mL (≈ 0.0662 µM)	0.25 µg/mL (≈ 0.662 µM)	0.5 µg/mL (≈ 1.32 µM)	0.5 µg/mL (≈ 1.32 µM)	2 µg/mL (≈ 5.3 µM)	1 µg/mL (≈ 2.65 µM)	0.25 µg/mL (≈ 0.662 µM)	0.5 µg/mL (≈ 1.32 µM)	0.5 µg/mL (≈ 1.32 µM)	0.25 µg/mL (≈ 0.662 µM)	0.5 µg/mL (≈ 1.32 µM)	0.5 µg/mL (≈ 1.32 µM)	0.5 µg/mL (≈ 1.32 µM)	2 µg/mL (≈ 5.3 µM)	16 µg/mL (≈ 42.4 µM)	16 µg/mL (≈ 42.4 µM)	32 µg/mL (≈ 84.8 µM)	O=C(NNC(=O)[C@@H]1CC[C@@H]2CN1C(=O)N2OS(=O)(=O)O)[C@@H]1CCCN1 [Example 1, trans-sulfuric acid mono-[2-(N′—[(S)-pyrrolidin-2-carbonyl]-hydrazinocarbonyl)-7-oxo-1,6-diaza-bicyclo[3.2.1]oct-6-yl]ester]	–
8 µg/mL (≈ 20.4 µM)	4 µg/mL (≈ 10.2 µM)	2 µg/mL (≈ 5.1 µM)	2 µg/mL (≈ 5.1 µM)	2 µg/mL (≈ 5.1 µM)	8 µg/mL (≈ 20.4 µM)	1 µg/mL (≈ 2.55 µM)	4 µg/mL (≈ 10.2 µM)	4 µg/mL (≈ 10.2 µM)	4 µg/mL (≈ 10.2 µM)	2 µg/mL (≈ 5.1 µM)	2 µg/mL (≈ 5.1 µM)	2 µg/mL (≈ 5.1 µM)	2 µg/mL (≈ 5.1 µM)	4 µg/mL (≈ 10.2 µM)	> 32 µg/mL	> 32 µg/mL	> 32 µg/mL	O=C(NNC(=O)[C@H]1CC[C@@H]2CN1C(=O)N2OS(=O)(=O)O)C1CNCCN1 (mixture of isomers) [Example 38, trans-sulfuric acid mono-[2-(N′—((RS)-piperazin-2-carbonyl)-hydrazinocarbonyl)-7-oxo-1,6-diaza-bicyclo[3.2.1]oct-6-yl]ester]	–
4 µg/mL (≈ 11.9 µM)	2 µg/mL (≈ 5.93 µM)	2 µg/mL (≈ 5.93 µM)	2 µg/mL (≈ 5.93 µM)	4 µg/mL (≈ 11.9 µM)	4 µg/mL (≈ 11.9 µM)	4 µg/mL (≈ 11.9 µM)	2 µg/mL (≈ 5.93 µM)	2 µg/mL (≈ 5.93 µM)	1 µg/mL (≈ 2.96 µM)	0.5 µg/mL (≈ 1.48 µM)	2 µg/mL (≈ 5.93 µM)	1 µg/mL (≈ 2.96 µM)	2 µg/mL (≈ 5.93 µM)	4 µg/mL (≈ 11.9 µM)	> 32 µg/mL	> 32 µg/mL	> 32 µg/mL	NCC(=O)NNC(=O)[C@H]1CC[C@@H]2CN1C(=O)N2OS(=O)(=O)O (relative stereo) [Example 7, trans-sulfuric acid mono-[2-(N′-(amino-acetyl)-hydrazinocarbonyl)-7-oxo-1,6-diaza-bicyclo[3.2.1]oct-6-yl]ester]	–
–	–	–	> 32 µg/mL	> 32 µg/mL	> 32 µg/mL	> 32 µg/mL	> 32 µg/mL	> 32 µg/mL	> 32 µg/mL	> 32 µg/mL	> 32 µg/mL	> 32 µg/mL	> 32 µg/mL	> 32 µg/mL	2 µg/mL (≈ 4.59 µM)	8 µg/mL (≈ 18.4 µM)	8 µg/mL (≈ 18.4 µM)	C[C@H]1[C@H](NC(=O)/C(=N\OC(C)(C)C(=O)O)c2csc(N)n2)C(=O)N1S(=O)(=O)O [Aztreonam, reference compound]	–
–	–	–	0.5 µg/mL (≈ 1.67 µM)	0.5 µg/mL (≈ 1.67 µM)	4 µg/mL (≈ 13.4 µM)	8 µg/mL (≈ 26.7 µM)	32 µg/mL (≈ 107 µM)	0.25 µg/mL (≈ 0.835 µM)	0.25 µg/mL (≈ 0.835 µM)	0.25 µg/mL (≈ 0.835 µM)	16 µg/mL (≈ 53.4 µM)	16 µg/mL (≈ 53.4 µM)	16 µg/mL (≈ 53.4 µM)	16 µg/mL (≈ 53.4 µM)	4 µg/mL (≈ 13.4 µM)	> 32 µg/mL	> 32 µg/mL	C[C@@H](O)[C@H]1C(=O)N2C(C(=O)O)=C(SCCN=CN)C[C@H]12 [Imipenem, reference compound]	–
–	–	–	–	–	–	–	–	–	–	–	32 µg/mL (≈ 96.6 µM)	8 µg/mL (≈ 24.1 µM)	32 µg/mL (≈ 96.6 µM)	–	0.5 µg/mL (≈ 1.51 µM)	–	–	O=C(O)c1cn(C2CC2)c2cc(N3CCNCC3)c(F)cc2c1=O [Ciprofloxacin, reference compound]	–
–	–	–	–	–	–	–	–	–	–	–	–	–	–	–	–	–	–	CN(C)c1cc(NC(=O)CNC(C)(C)C)c(O)c2c1C[C@H]1C[C@H]3[C@H](N(C)C)C(O)=C(C(N)=O)C(=O)[C@@]3(O)C(O)=C1C2=O [Tigecyclin, Tigecycline, reference compound]	MIC (E. coli M 50; Escherichia coli, M50): 0.5 µg/mL (≈ 0.854 µM); MIC (E. Coli B 89): 0.5 µg/mL (≈ 0.854 µM); MIC (E. Coli H 484): 0.25 µg/mL (≈ 0.427 µM); MIC (E. Coli M 3): 4 µg/mL (≈ 6.83 µM); MIC (E. Coli M 44): 0.25 µg/mL (≈ 0.427 µM); MIC (E. Coli W 13351): 1 µg/mL (≈ 1.71 µM); MIC (E. Coli W 13352): 0.25 µg/mL (≈ 0.427 µM); MIC (E. Coli W 13353): 1 µg/mL (≈ 1.71 µM); MIC (K penumoniae H 521): 2 µg/mL (≈ 3.41 µM); MIC (K penumoniae H 523): 8 µg/mL (≈ 13.7 µM); MIC (K penumoniae H 525): 2 µg/mL (≈ 3.41 µM); MIC (K. penumoniae S 48): 1 µg/mL (≈ 1.71 µM); MIC (P. aeruginosa ATCC 27853): 16 µg/mL (≈ 27.3 µM); MIC (P. aeruginosa Ps 21): 16 µg/mL (≈ 27.3 µM); MIC (P. aeruginosa Ps 32): 16 µg/mL (≈ 27.3 µM)
–	–	–	–	–	–	–	–	–	–	–	–	–	–	–	–	–	–	CS(=O)(=O)N1CCC[C@H]1C(=O)NNC(=O)[C@H]1CC[C@@H]2CN1C(=O)N2OS(=O)(=O)[O-].[Na+] (relative stereo) [Example 50, Sodium salt of trans-sulfuric acid mono-[2-(N′—[(S)-1-methanesulfonyl-pyrrolidin-2-carbonyl]-hydrazinocarbonyl)-7-oxo-1,6-diaza-bicyclo[3.2.1]oct-6-yl]ester]	MIC (E. coli 7 MP): 32 µg/mL; MIC (E. coli NCTC 13351; Table 3, E. coli NCTC 13351 expressing ESBL): 16 µg/mL; MIC (E. coli M 50; Table 3, E. coli M 50 expressing ESBL, agar dilution): 16 µg/mL
2 µg/mL	1 µg/mL	1 µg/mL	–	–	–	–	–	–	–	–	–	–	–	–	–	–	–	NCCCC[C@H](N)C(=O)NNC(=O)[C@H]1CC[C@@H]2CN1C(=O)N2OS(=O)(=O)O (mixture of isomers) [Example 26, trans-sulfuric acid mono-[2-(N′-((2S)-2,6-diamino-hexanoyl)-hydrazinocarbonyl)-7-oxo-1,6-diaza-bicyclo[3.2.1]oct-6-yl]ester]	–
4 µg/mL (≈ 10.9 µM)	1 µg/mL (≈ 2.74 µM)	1 µg/mL (≈ 2.74 µM)	–	–	–	–	–	–	–	–	–	–	–	–	–	–	–	CC(N)CC(=O)NNC(=O)[C@H]1CC[C@@H]2CN1C(=O)N2OS(=O)(=O)O (mixture of isomers) [Example 21, trans-sulfuric acid mono-[2-(N′—((RS)-3-amino-butanoyl)-hydrazinocarbonyl)-7-oxo-1,6-diaza-bicyclo[3.2.1]oct-6-yl]ester]	–
4 µg/mL (≈ 11 µM)	1 µg/mL (≈ 2.75 µM)	1 µg/mL (≈ 2.75 µM)	–	–	–	–	–	–	–	–	–	–	–	–	–	–	–	O=C(NNC(=O)[C@H]1CC[C@@H]2CN1C(=O)N2OS(=O)(=O)O)C1CNC1 (relative stereo) [Example 28, trans-sulfuric acid mono-[2-(N′-[azetidin-3-carbonyl]-hydrazinocarbonyl)-7-oxo-1,6-diaza-bicyclo[3.2.1]oct-6-yl]ester]	–
128 µg/mL (≈ 339 µM)	32 µg/mL (≈ 84.8 µM)	16 µg/mL (≈ 42.4 µM)	–	–	–	–	–	–	–	–	–	–	–	–	–	–	–	O=C(NNC(=O)N1CCCC1)[C@H]1CC[C@@H]2CN1C(=O)N2OS(=O)(=O)O (relative stereo) [Example 29, trans-sulfuric acid mono-[2-(N′-[pyrrolidin-1-carbonyl]-hydrazinocarbonyl)-7-oxo-1,6-diaza-bicyclo[3.2.1]oct-6-yl]ester]	–
